Assay results reported in patent publication US20200339625A1, “NOVEL RADIOMETAL-BINDING COMPOUNDS FOR DIAGNOSIS OR TREATMENT OF PROSTATE SPECIFIC MEMBRANE ANTIGEN-EXPRESSING CANCER” (PROVINCIAL HEALTH SERVICES AUTHORITY, priority 2017, published 2020).
Blank lines part the entries; values can stand above or below the compound they belong to.

Columns and labels:
[1] = system: mice bearing PSMA-expressing LNCAP cancer xenografts; assay: Biodistribution of 68Ga-labeled compounds; assay type: in vivo
Method: (§1) Imaging and biodistribution experiments were performed using NODSCID 1L2RyKO male mice. Mice were anesthetized by inhalation with 2% isoflurane in oxygen, and implanted subcutaneously with 1×10^7 LNCaP cells behind left shoulder. Mice were imaged or used in biodistribution studies when the tumor grew up to reach 5-8 mm in diameter during 5-6 weeks.
For biodistribution studies, the mice were injected with the radiotracer as described above. At predetermined time points (1 or 3 h), the mice was anesthetized with 2% isoflurane inhalation, and euthanized by CO2 inhalation. Blood was withdrawn immediately from the heart, and the organs/tissues of interest were collected. The collected organs/tissues were weighed and counted using an automatic gamma counter. The uptake in each organ/tissue was normalized to the injected dose using a standard curve, and expressed as the percentage of the injected dose per gram of tissue (% ID/g).

[2] = system: mice bearing LNCaP tumor xenografts; assay: PET/CT imaging of 68Ga-labeled compounds; assay type: in vivo; conditions: PET/CT images
Method: 2.17 PET/CT Imaging and Biodistribution
as §1
PET imaging experiments were conducted using Siemens Inveon micro PET/CT scanner. Each tumor bearing mouse was injected 6-8 MBq of 68Ga-labeled tracer through the tail vein under anesthesia (2% isoflurane in oxygen). The mice were allowed to recover and roam freely in their cage. After 50 min, the mice were sedated again with 2% isoflurane in oxygen inhalation and positioned in the scanner. A 10-min CT scan was conducted first for localization and attenuation correction after segmentation for reconstructing the PET images. Then, a 10-min static PET imaging was performed to determined uptake in tumor and other organs. The mice were kept warm by a heating pad during acquisition. For imaging studies acquired at 3 h post-injection (p.i.), the mice were placed in the micro PET/CT scanner at 170 min p.i. Then, the CT acquisitions were conducted as described above, a 15-min static PET imaging was performed to determined uptake in tumor and other organs.

- Adrenal glands uptake ([1]; 1 h post-injection): 4.32 ± 0.25 % ID/g
- Blood uptake ([1]; 1 h post-injection): 27.0 ± 5.63 % ID/g
- Bone uptake ([1]; 1 h post-injection): 1.26 ± 0.08 % ID/g
- Brain uptake ([1]; 1 h post-injection): 0.31 ± 0.04 % ID/g
- Fat uptake ([1]; 1 h post-injection): 1.83 ± 0.44 % ID/g
- Heart uptake ([1]; 1 h post-injection): 6.53 ± 1.30 % ID/g
- Intestine uptake ([1]; 1 h post-injection): 1.86 ± 0.06 % ID/g
- Kidneys uptake ([1]; 1 h post-injection): 9.11 ± 1.06 % ID/g
- Lacrimal uptake ([1]; 1 h post-injection): 0.93 ± 0.36 % ID/g
- Liver uptake ([1]; 1 h post-injection): 3.71 ± 0.38 % ID/g
- Lungs uptake ([1]; 1 h post-injection): 9.51 ± 0.55 % ID/g
- Muscle uptake ([1]; 1 h post-injection): 1.10 ± 0.18 % ID/g
- Pancreas uptake ([1]; 1 h post-injection): 1.86 ± 0.04 % ID/g
- Salivary uptake ([1]; 1 h post-injection): 3.31 ± 0.79 % ID/g
- Seminal uptake ([1]; 1 h post-injection): 1.27 ± 0.18 % ID/g
- Spleen uptake ([1]; 1 h post-injection): 2.72 ± 0.69 % ID/g
- Stomach uptake ([1]; 1 h post-injection): 0.64 ± 0.05 % ID/g
- Tail uptake ([1]; 1 h post-injection): 7.58 ± 4.49 % ID/g
- Testes uptake ([1]; 1 h post-injection): 2.98 ± 0.30 % ID/g
- Thyroid uptake ([1]; 1 h post-injection): 4.39 ± 0.01 % ID/g
- Tumor uptake ([1]; 1 h post-injection): 7.34 ± 0.10 % ID/g
- Tumor:Blood ratio ([1]; 1 h post-injection): 0.28 ± 0.05
- Tumor:Muscle ratio ([1]; 1 h post-injection): 6.74 ± 1.00
- Tumor:kidney ratio ([1]; 1 h post-injection): 0.81 ± 0.11
- Urine uptake ([1]; 1 h post-injection): 1.48 ± 0.71 % ID/g
- Adrenal glands uptake ([1]; 3 h post-injection): 6.37 ± 1.54 % ID/g
- Blood uptake ([1]; 3 h post-injection): 23.9 ± 1.03 % ID/g
- Bone uptake ([1]; 3 h post-injection): 1.66 ± 0.39 % ID/g
- Brain uptake ([1]; 3 h post-injection): 0.34 ± 0.02 % ID/g
- Fat uptake ([1]; 3 h post-injection): 3.53 ± 1.48 % ID/g
- Heart uptake ([1]; 3 h post-injection): 5.56 ± 0.43 % ID/g
- Intestine uptake ([1]; 3 h post-injection): 1.66 ± 0.14 % ID/g
- Kidneys uptake ([1]; 3 h post-injection): 12.3 ± 0.86 % ID/g
- Lacrimal uptake ([1]; 3 h post-injection): 3.57 ± 1.56 % ID/g
- Liver uptake ([1]; 3 h post-injection): 3.86 ± 0.63 % ID/g
- Lungs uptake ([1]; 3 h post-injection): 11.6 ± 0.82 % ID/g
- Muscle uptake ([1]; 3 h post-injection): 1.55 ± 0.15 % ID/g
- Pancreas uptake ([1]; 3 h post-injection): 1.86 ± 0.20 % ID/g
- Salivary uptake ([1]; 3 h post-injection): 4.66 ± 0.58 % ID/g
- Seminal uptake ([1]; 3 h post-injection): 1.63 ± 0.13 % ID/g
- Spleen uptake ([1]; 3 h post-injection): 2.62 ± 0.93 % ID/g
- Stomach uptake ([1]; 3 h post-injection): 0.70 ± 0.10 % ID/g
- Tail uptake ([1]; 3 h post-injection): 4.03 ± 0.43 % ID/g
- Testes uptake ([1]; 3 h post-injection): 3.07 ± 0.20 % ID/g
- Thyroid uptake ([1]; 3 h post-injection): 4.19 ± 0.48 % ID/g
- Tumor uptake ([1]; 3 h post-injection): 15.0 ± 2.19 % ID/g
- Tumor:Blood ratio ([1]; 3 h post-injection): 0.63 ± 0.11
- Tumor:Muscle ratio ([1]; 3 h post-injection): 9.69 ± 1.51
- Tumor:kidney ratio ([1]; 3 h post-injection): 1.21 ± 0.10
- Urine uptake ([1]; 3 h post-injection): 3.68 ± 1.74 % ID/g
SMILES: O=C([O-])CN1CCN(CC(=O)[O-])CCN(CC(=O)NCCCC[C@H](NC(=O)CNC(=O)CCCc2ccc(I)cc2)C(=O)NC[C@H]2CC[C@H](C(=O)N[C@@H](Cc3ccc4ccccc4c3)C(=O)NCCCC[C@H](NC(=O)N[C@@H](CCC(=O)O)C(=O)O)C(=O)O)CC2)CCN(CC(=O)[O-])CC1.[68Ga+3] [^68Ga-HTK03024]

- Adrenal glands uptake ([1]; 1 h post-injection): 1.84 ± 0.95 % ID/g
- Blood uptake ([1]; 1 h post-injection): 0.70 ± 0.19 % ID/g
- Bone uptake ([1]; 1 h post-injection): 0.54 ± 0.20 % ID/g
- Brain uptake ([1]; 1 h post-injection): 0.06 ± 0.02 % ID/g
- Fat uptake ([1]; 1 h post-injection): 0.45 ± 0.11 % ID/g
- Heart uptake ([1]; 1 h post-injection): 0.30 ± 0.06 % ID/g
- Intestine uptake ([1]; 1 h post-injection): 0.29 ± 0.06 % ID/g
- Kidneys uptake ([1]; 1 h post-injection): 68.5 ± 28.2 % ID/g
- Lacrimal uptake ([1]; 1 h post-injection): 1.33 ± 0.90 % ID/g
- Liver uptake ([1]; 1 h post-injection): 0.24 ± 0.06 % ID/g
- Lungs uptake ([1]; 1 h post-injection): 0.82 ± 0.26 % ID/g
- Muscle uptake ([1]; 1 h post-injection): 0.28 ± 0.13 % ID/g
- Pancreas uptake ([1]; 1 h post-injection): 0.71 ± 1.04 % ID/g
- Salivary uptake ([1]; 1 h post-injection): 0.83 ± 0.22 % ID/g
- Seminal uptake ([1]; 1 h post-injection): 0.43 ± 0.31 % ID/g
- Spleen uptake ([1]; 1 h post-injection): 1.34 ± 0.54 % ID/g
- Stomach uptake ([1]; 1 h post-injection): 0.10 ± 0.03 % ID/g
- Tail uptake ([1]; 1 h post-injection): 0.90 ± 0.56 % ID/g
- Testes uptake ([1]; 1 h post-injection): 0.35 ± 0.22 % ID/g
- Thyroid uptake ([1]; 1 h post-injection): 0.35 ± 0.08 % ID/g
- Tumor uptake ([1]; 1 h post-injection): 12.5 ± 2.90 % ID/g
- Tumor:Blood ratio ([1]; 1 h post-injection): 18.6 ± 5.54
- Tumor:Muscle ratio ([1]; 1 h post-injection): 52.8 ± 24.9
- Tumor:kidney ratio ([1]; 1 h post-injection): 0.22 ± 0.15
- Urine uptake ([1]; 1 h post-injection): 575 ± 245 % ID/g
- excretion pathway [2]: excreted mainly via the renal pathway
- tumor uptake (qualitative comparison) ([2]; compounds of FIG. 13): comparable
SMILES: CCCCCCC(NC(=O)C1CCC(CNC(=O)CN2CCN(CC(=O)[O-])CCN(CC(=O)[O-])CCN(CC(=O)[O-])CC2)CC1)C(=O)NCCCCC(NC(=O)NC(CCC(=O)O)C(=O)O)C(=O)O.[68Ga+3] (stereo not shown) [^68Ga-HTK03026]

- Adrenal glands uptake ([1]; 1 h post-injection): 2.95 ± 0.92 % ID/g
- Blood uptake ([1]; 1 h post-injection): 1.74 ± 0.11 % ID/g
- Bone uptake ([1]; 1 h post-injection): 0.16 ± 0.02 % ID/g
- Brain uptake ([1]; 1 h post-injection): 0.04 ± 0.01 % ID/g
- Fat uptake ([1]; 1 h post-injection): 0.77 ± 0.14 % ID/g
- Heart uptake ([1]; 1 h post-injection): 0.52 ± 0.07 % ID/g
- Intestine uptake ([1]; 1 h post-injection): 0.32 ± 0.06 % ID/g
- Kidneys uptake ([1]; 1 h post-injection): 102 ± 8.91 % ID/g
- Lacrimal uptake ([1]; 1 h post-injection): 0.06 ± 0.05 % ID/g
- Liver uptake ([1]; 1 h post-injection): 0.44 ± 0.06 % ID/g
- Lungs uptake ([1]; 1 h post-injection): 1.75 ± 0.09 % ID/g
- Muscle uptake ([1]; 1 h post-injection): 0.31 ± 0.05 % ID/g
- Pancreas uptake ([1]; 1 h post-injection): 0.45 ± 0.02 % ID/g
- Salivary uptake ([1]; 1 h post-injection): 1.76 ± 0.16 % ID/g
- Seminal uptake ([1]; 1 h post-injection): 2.40 ± 2.83 % ID/g
- Spleen uptake ([1]; 1 h post-injection): 2.42 ± 0.79 % ID/g
- Stomach uptake ([1]; 1 h post-injection): 0.14 ± 0.05 % ID/g
- Tail uptake ([1]; 1 h post-injection): 0.91 ± 0.12 % ID/g
- Testes uptake ([1]; 1 h post-injection): 0.48 ± 0.06 % ID/g
- Thyroid uptake ([1]; 1 h post-injection): 0.74 ± 0.04 % ID/g
- Tumor uptake ([1]; 1 h post-injection): 20.7 ± 3.79 % ID/g
- Tumor:Blood ratio ([1]; 1 h post-injection): 11.9 ± 1.92
- Tumor:Muscle ratio ([1]; 1 h post-injection): 66.6 ± 9.63
- Tumor:kidney ratio ([1]; 1 h post-injection): 0.20 ± 0.02
- Urine uptake ([1]; 1 h post-injection): 196 ± 50.9 % ID/g
- Adrenal glands uptake ([1]; 3 h post-injection): 0.90 ± 0.36 % ID/g
- Blood uptake ([1]; 3 h post-injection): 0.52 ± 0.08 % ID/g
- Bone uptake ([1]; 3 h post-injection): 0.03 ± 0.03 % ID/g
- Brain uptake ([1]; 3 h post-injection): 0.01 ± 0.00 % ID/g
- Fat uptake ([1]; 3 h post-injection): 0.40 ± 0.11 % ID/g
- Heart uptake ([1]; 3 h post-injection): 0.16 ± 0.03 % ID/g
- Intestine uptake ([1]; 3 h post-injection): 0.23 ± 0.10 % ID/g
- Kidneys uptake ([1]; 3 h post-injection): 56.1 ± 20.3 % ID/g
- Lacrimal uptake ([1]; 3 h post-injection): 0.00 ± 0.00 % ID/g
- Liver uptake ([1]; 3 h post-injection): 0.31 ± 0.19 % ID/g
- Lungs uptake ([1]; 3 h post-injection): 0.53 ± 0.12 % ID/g
- Muscle uptake ([1]; 3 h post-injection): 0.08 ± 0.02 % ID/g
- Pancreas uptake ([1]; 3 h post-injection): 0.14 ± 0.03 % ID/g
- Salivary uptake ([1]; 3 h post-injection): 0.47 ± 0.07 % ID/g
- Seminal uptake ([1]; 3 h post-injection): 1.44 ± 3.04 % ID/g
- Spleen uptake ([1]; 3 h post-injection): 0.80 ± 0.31 % ID/g
- Stomach uptake ([1]; 3 h post-injection): 0.07 ± 0.04 % ID/g
- Tail uptake ([1]; 3 h post-injection): 0.27 ± 0.05 % ID/g
- Testes uptake ([1]; 3 h post-injection): 0.17 ± 0.05 % ID/g
- Thyroid uptake ([1]; 3 h post-injection): 0.24 ± 0.05 % ID/g
- Tumor uptake ([1]; 3 h post-injection): 20.4 ± 5.92 % ID/g
- Tumor:Blood ratio ([1]; 3 h post-injection): 39.2 ± 8.42
- Tumor:Muscle ratio ([1]; 3 h post-injection): 254 ± 88.9
- Tumor:kidney ratio ([1]; 3 h post-injection): 0.40 ± 0.16
- Urine uptake ([1]; 3 h post-injection): 339 ± 355 % ID/g
SMILES: Nc1ccc(CCCC(=O)NCC(=O)N[C@@H](CCCCNC(=O)CN2CCN(CC(=O)[O-])CCN(CC(=O)[O-])CCN(CC(=O)[O-])CC2)C(=O)NC[C@H]2CC[C@H](C(=O)N[C@@H](Cc3ccc4ccccc4c3)C(=O)NCCCC[C@H](NC(=O)N[C@@H](CCC(=O)O)C(=O)O)C(=O)O)CC2)cc1.[68Ga+3] [^68Ga-HTK03087]
